In patent publication US8586719B2, “Triterpenes for modulating gene expression and cell membrane, and as antiprotozoal agents” (Pacific Arrow Limited, priority 2005, dated 2013):

Tests used:
[1] = test system: regulator of G-protein signalling 4 (RGS4); assay: Microarray gene expression in ES2 cells: regulator of G-protein; type: cell-based, human
Description: (§1) The composition comprises bioactive compounds from natural plants or synthesis. The majority of the plants are from the Sapindaceae family, which has 140-150 genera with 1400-2000 species. The program is based on our purification methods and biological assays including the MTT assay See International Application No. PCT/US05/31900, filed Sep. 7, 2005, U.S. Ser. No. 11/289,142, filed Nov. 28, 2005, and U.S. Ser. No. 11/131,551, filed May 17, 2005, and PCT/US2008/002086, 1188-ALA-PCT, filed Feb. 15, 2008, the contents of which are incorporated herein by reference. The details of Analysis of gene expression of ES2 cells after Y-treatment by Microarray, Data Analysis Methods and Western blot in PCT/US2008/002086, 1188-ALA-PCT, filed Feb. 15, 2008, the contents of which are incorporated herein by reference

angiopoietin-like 1 = assay: Microarray gene expression in ES2 cells: angiopoietin-like 1; type: cell-based, human; settings: micro array
Description: as §1
(§2) Angiogenesis is a process involving the growth of new blood vessels. It is a normal process in growth and development. However, this is also a fundamental step in the transition of tumors from a dormant state to a malignant state. The angiopoietins are protein growth factors that modulate angiogenesis. […]

angiopoietin 1 = assay: Microarray gene expression in ES2 cells: angiopoietin 1; type: cell-based, human; settings: micro array
Description: as §1, §2

Fibronectin [2] = assay: Fibronectin secretion, bladder carcinoma cells (HTB-9); type: cell-based, human; settings: Homo sapiens; Bladder HTB-9; 10 ug/ml (table: label suffix -10)
Protocol: (§3) Reduction of Fibronectin secretion from ES2 cells after xanifolia-Y treatment. • (Results of F1, F3, F4, F5, F7, F8, F11, F12A, F15, F16, F17) Data in PCT/US2008/002086, 1188-ALA-PCT, filed Feb. 15, 2008 are incorporated herein by reference • (F11) For lung carcinoma cells (H460), at concentration of 20 ug/ml, there are inhibitions of Fibronectin secretion ranged from 20-60%. • (F12A) For bladder carcinoma cells (HTB-9), Xanifolia-Y (10 ug/ml) inhibits 50% of Fibronectin secretion. • (F15) In liver HepG2 cells. 10 ug/ml of xanifolia-Y inhibits 42% secretion of Fibronectin. • (F16) Incubation of brain glioblastoma T98G cells with 10 ug/ml of xanifolia-Y inhibits 27% Fibronectin secretion and with 20 ug/ml Y inhibits 74% Fibronectin secretion. • (F17) For skin SK-MeI-5 cells, the inhibition is 40-57% with 20 ug/ml of Xanifolia-Y.

[3] = test system: insulin-like growth factor binding protein 7 (IGFBP7); assay: Microarray gene expression in ES2 cells: IGFBP7; type: cell-based, human; settings: probe set 201163_s_at
Description: as §1

ES2 cells = assay: Microarray experiments: lists of modulated genes; type: cell-based, human
Description: as §1

Fibronectin [4] = assay: Fibronectin secretion, skin SK-MEL-5 cells; type: cell-based, human; settings: Homo sapiens, SK-MEL-5; skin SK-MeI-5 cells; 20 ug/ml
Protocol: as §3

[5] = test system: LIF (Leukemia inhibitory factor); assay: Gene expression by Real-time PCR: LIF; type: cell-based; settings: DMSO control = 100
Description: Determination of gene expression by Real-time PCR method (Brilliant QPCR, Agilent Technologies): The real-time polymerase chain reactions further confirm the results obtained from micro array analysis. The Real-time PCR results (shown below) confirmed that Compound Y3 and YM increase the expression of the genes: ANGPT2, DDIT3, LIF and NFKB1Z

[6] = test system: protein phosphatase 1, regulatory (inhibitor) subunit 15A (PPP1R15A); assay: Microarray gene expression in ES2 cells: PPP1R15A; type: cell-based, human
Description: as §1

[7] = test system: insulin-like growth factor binding protein 1 (IGFBP1); assay: Microarray gene expression in ES2 cells: IGFBP1; type: cell-based, human; settings: probe set 205302_at
Description: as §1

thrombospondin 1 (THBS1) = assay: Microarray gene expression in ES2 cells: thrombospondin; type: cell-based, human
Description: as §1

tumor bearing mice = assay: Animal studies in tumor bearing mice; type: in vivo
Description: (Reference Experiments 7, 8, 9 in U.S. Ser. Nos. 11/683,198, filed on Mar. 7, 2007,). The animals died sooner if the treatment of Xanifolia-Y was delayed (comparing results of treatments started from 1, 4 or 10 days after tumor inoculation). […] Ovarian carcinoma cells express high levels of adhesion molecules. Adhesion proteins are present in both cancer cells and mesothelial cells. While the lost of adhesion blocks of the protein accessibility due to a result of modulating by Xanifolia-Y, In an embodiment, the interaction of Xanifolia-Y with membrane alter the adhesion protein's binding site(s).

Fibronectin [8] = assay: Fibronectin secretion from ES2 cells; type: cell-based, human
Protocol: as §3

leptin = assay: Expression of leptin; type: cell-based
Fibronectin [9] = assay: Fibronectin secretion, brain glioblastoma T98G cells; type: cell-based, human; settings: Homo sapiens, T98G
Protocol: as §3

angiopoietin-like 4 = assay: Microarray gene expression in ES2 cells: angiopoietin-like 4; type: cell-based, human; settings: micro array
Description: as §1, §2

angiopoietin 2 = assay: Microarray gene expression in ES2 cells: angiopoietin 2; type: cell-based, human; settings: micro array
Description: as §1, §2

## C/C=C(/C)C(=O)O[C@H]1[C@H](OC(=O)/C(C)=C\C)[C@@]2(CO)C(CC1(C)C)C1=CCC3[C@@]4(C)CC[C@H](O[C@@H]5OC(C(=O)O)[C@@H](O)[C@@H](O[C@@H]6O[C@@H](CO)[C@@H](O)C6O)C5O[C@@H]5OC(CO)[C@H](O)[C@@H](O)C5O)C(C)(C)C4CC[C@@]3(C)[C@]1(C)[C@@H](O)[C@H]2O (stereo partly drawn) [Y, 3-O-[β-D-galactopyranosyl(1→2)]-α-L-arabinofuranosy (1→3)-β-D-glucuronopyranosyl-21,22-O-diangeloyl-3β, 15α, 16α, 21β, 22α, 28-hexahydroxyolean-12-ene]
[1]; probe set 204337_at
  RGS4 expression, treated/D (DMSO control): −3.4
[1]; probe set 204338_s_at
  RGS4 expression, treated/D (DMSO control): −2.5
[1]; probe set 204339_s_at
  RGS4 expression, treated/D (DMSO control): −3.5
angiopoietin-like 1
  gene expression of angiopoietin-like 1: inhibit
Angiopoietin 1
  gene expression of angiopoietin 1: inhibit
Fibronectin [2]
  inhibition at 10 µg/mL: 50%
[3]
  IGFBP7 expression, treated/D (DMSO control): −1.4
ES2 cells
  genes expression of the adhesion-related genes listed in b182 (FN1, ITGAV, LAMA4 ...): inhibited
ES2 cells; Microarray
  gene expression of the genes listed in b176: modulates
  gene expression of the genes listed in b178: inhibiting
  gene expression of the genes listed in b180: stimulates
Fibronectin [4]
  inhibition at 20 µg/mL: 40 to 57%
[5]
  LIF expression, % of control: 163 % of control
[6]; 37028_at
  PPP1R15A expression (given as Y/D, YM/D): 2.4
[6]; 202014_at
  PPP1R15A expression (given as Y/D, YM/D): 2.6
[7]
  IGFBP1 expression, treated/D (DMSO control): −1.7
Thrombospondin 1 (THBS1); probe set 201108_s_at
  THBS1 expression, treated/D (DMSO control): −1.7
Thrombospondin 1 (THBS1); probe set 201109_s_at
  THBS1 expression, treated/D (DMSO control): −2.0
Thrombospondin 1 (THBS1); probe set 201110_s_at
  THBS1 expression, treated/D (DMSO control): −1.8
Tumor bearing mice; Experiments 7, 8, 9 of U.S. Ser. No. 11/683,198
  life span of tumor bearing mice: extended the life span
Tumor bearing mice; treatment started 1, 4 or 10 days after tumor inoculation
  migration or metastasis of the inoculated cancer cells: inhibits migration or metastasis
Fibronectin [8]
  Fibronectin secretion from ES2 cells: Reduction
leptin
  expression of leptin: inhibit
Fibronectin [9]; read-out: % inhibition of Fibronectin secretion
  inhibition at 10 µg/mL: 27%
Fibronectin [9]; read-out: inhibition of Fibronectin secretion
  inhibition at 20 µg/mL: 74%
angiopoietin-like 4
  gene expression of angiopoietin-like 4: inhibit
Angiopoietin 2
  gene expression of angiopoietin 2: promote
